According to patent publication US10231954B2, “Neurodegenerative therapies” (LYTIX BIOPHARMA AS, priority 2014, dated 2019):
Like-named read-outs stand apart in the source and are kept apart here.

Tests used:
Type in all cases: biochemical
YES1 = YES1 (Homo sapiens, UniProt P07947); experiment: Kinase profiling YES1; details: for remaining activity at 100 µM: read-out: residual kinase activity, YES1
Source text: (§1) Any value less that 25 is considered to be highly significant inhibition.

ASK1 = target: T1, ASK1 (Homo sapiens, UniProt Q99683); experiment: Kinase profiling ASK1; details: for remaining activity at 100 µM: read-out: residual kinase activity, ASK1
T1 sequence (Q99683 1-1374): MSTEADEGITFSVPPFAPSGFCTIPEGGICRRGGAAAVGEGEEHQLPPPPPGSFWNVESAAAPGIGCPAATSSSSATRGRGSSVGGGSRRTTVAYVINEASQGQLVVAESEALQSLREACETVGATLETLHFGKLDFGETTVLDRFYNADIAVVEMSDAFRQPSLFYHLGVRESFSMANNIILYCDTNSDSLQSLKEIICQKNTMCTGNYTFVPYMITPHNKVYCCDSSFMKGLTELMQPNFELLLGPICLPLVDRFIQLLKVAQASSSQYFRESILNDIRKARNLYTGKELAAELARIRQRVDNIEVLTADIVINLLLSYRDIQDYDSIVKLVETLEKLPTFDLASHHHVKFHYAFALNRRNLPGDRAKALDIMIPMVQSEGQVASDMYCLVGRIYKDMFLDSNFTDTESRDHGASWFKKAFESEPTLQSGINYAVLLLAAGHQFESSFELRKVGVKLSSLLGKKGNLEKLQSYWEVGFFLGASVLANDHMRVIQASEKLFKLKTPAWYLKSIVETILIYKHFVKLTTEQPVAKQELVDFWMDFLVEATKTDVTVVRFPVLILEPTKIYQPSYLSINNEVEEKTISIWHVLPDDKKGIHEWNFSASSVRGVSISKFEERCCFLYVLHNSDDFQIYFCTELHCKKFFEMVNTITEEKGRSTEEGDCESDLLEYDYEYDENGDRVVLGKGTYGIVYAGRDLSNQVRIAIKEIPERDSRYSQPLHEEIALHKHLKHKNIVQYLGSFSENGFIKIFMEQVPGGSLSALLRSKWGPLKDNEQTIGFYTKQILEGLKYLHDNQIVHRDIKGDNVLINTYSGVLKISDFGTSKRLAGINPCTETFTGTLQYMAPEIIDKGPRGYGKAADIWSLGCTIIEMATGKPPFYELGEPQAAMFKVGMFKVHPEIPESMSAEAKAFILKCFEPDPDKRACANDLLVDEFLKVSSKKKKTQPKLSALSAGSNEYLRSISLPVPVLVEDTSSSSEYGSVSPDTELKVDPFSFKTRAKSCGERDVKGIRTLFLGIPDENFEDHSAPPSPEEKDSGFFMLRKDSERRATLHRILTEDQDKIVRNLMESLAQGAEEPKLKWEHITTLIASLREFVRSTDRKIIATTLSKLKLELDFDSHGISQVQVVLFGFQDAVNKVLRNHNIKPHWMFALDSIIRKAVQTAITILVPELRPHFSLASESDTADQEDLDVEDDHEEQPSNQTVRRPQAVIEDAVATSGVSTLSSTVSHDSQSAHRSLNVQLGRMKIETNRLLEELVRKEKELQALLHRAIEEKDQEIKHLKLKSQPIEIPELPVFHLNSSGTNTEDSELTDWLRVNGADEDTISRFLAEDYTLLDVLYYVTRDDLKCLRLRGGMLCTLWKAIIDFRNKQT
Source text: as §1

EPH-B2 = target: T2, EPH-B2 (Homo sapiens, UniProt P29323); experiment: Kinase profiling EPH-B2; details: for remaining activity at 100 µM: read-out: residual kinase activity, EPH-B2
T2 sequence (P29323 19-1055): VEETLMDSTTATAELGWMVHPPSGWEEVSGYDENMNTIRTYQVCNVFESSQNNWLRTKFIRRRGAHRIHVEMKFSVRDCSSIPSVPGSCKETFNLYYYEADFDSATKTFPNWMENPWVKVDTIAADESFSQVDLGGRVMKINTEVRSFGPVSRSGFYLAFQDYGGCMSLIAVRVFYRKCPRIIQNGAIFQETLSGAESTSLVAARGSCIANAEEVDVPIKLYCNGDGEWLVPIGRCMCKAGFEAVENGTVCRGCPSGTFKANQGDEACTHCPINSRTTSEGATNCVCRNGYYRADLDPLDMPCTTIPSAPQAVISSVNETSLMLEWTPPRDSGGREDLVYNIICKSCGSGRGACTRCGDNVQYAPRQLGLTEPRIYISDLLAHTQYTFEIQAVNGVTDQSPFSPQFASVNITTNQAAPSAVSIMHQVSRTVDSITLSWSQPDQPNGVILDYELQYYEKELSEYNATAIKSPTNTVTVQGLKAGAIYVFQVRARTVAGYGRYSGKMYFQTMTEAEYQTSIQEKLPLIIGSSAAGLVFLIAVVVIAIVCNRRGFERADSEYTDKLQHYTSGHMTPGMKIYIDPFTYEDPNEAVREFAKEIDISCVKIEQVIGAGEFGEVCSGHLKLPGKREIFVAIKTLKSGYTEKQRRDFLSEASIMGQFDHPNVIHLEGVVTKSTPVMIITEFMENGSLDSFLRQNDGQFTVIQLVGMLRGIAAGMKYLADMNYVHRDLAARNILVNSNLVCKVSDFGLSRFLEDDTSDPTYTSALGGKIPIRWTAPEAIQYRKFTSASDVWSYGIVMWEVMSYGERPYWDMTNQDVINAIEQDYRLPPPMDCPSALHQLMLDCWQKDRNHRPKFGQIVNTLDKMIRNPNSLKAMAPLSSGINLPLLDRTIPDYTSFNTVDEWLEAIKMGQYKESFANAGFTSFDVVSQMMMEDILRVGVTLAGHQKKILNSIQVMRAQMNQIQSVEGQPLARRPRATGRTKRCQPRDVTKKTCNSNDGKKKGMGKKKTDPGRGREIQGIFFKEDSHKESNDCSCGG
Source text: as §1

MAPKAP-K3 = MAPKAP-K3 (Homo sapiens, UniProt Q16644); experiment: Kinase profiling MAPKAP-K3; details: for remaining activity at 100 µM: read-out: residual kinase activity, MAPKAP-K3
Source text: as §1

[1] = 100 micromolar inhibitor concentration, 100 is no change
[2] = 100 micromolar inhibitor, 100 = no change

Sequence of YES1 (P07947 whole entry, species assumed): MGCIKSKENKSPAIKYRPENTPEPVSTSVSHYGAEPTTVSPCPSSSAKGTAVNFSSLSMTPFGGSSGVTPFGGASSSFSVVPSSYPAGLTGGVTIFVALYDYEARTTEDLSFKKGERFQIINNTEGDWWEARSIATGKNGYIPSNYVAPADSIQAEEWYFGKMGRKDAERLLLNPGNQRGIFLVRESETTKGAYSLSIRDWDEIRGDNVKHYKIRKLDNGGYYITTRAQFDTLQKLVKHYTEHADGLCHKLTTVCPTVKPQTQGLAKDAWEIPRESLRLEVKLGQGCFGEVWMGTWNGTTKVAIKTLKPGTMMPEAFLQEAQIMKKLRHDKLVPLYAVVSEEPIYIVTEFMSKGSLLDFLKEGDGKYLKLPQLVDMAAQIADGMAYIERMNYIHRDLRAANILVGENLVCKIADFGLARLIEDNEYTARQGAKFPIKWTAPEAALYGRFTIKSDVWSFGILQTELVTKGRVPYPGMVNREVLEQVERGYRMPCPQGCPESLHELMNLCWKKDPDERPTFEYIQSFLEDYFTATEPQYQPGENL
Sequence of MAPKAP-K3 (Q16644 whole entry, species assumed): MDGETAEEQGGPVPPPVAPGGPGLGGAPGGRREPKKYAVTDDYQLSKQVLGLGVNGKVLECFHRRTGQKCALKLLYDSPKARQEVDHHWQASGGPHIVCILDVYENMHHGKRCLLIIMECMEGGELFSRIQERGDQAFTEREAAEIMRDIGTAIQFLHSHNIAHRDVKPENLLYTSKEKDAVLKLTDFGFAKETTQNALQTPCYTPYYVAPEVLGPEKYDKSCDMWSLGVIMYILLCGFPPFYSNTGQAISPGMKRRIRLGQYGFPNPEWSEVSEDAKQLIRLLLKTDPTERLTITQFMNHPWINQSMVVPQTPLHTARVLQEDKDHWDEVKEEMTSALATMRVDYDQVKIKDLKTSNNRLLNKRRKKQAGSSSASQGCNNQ

| SMILES | remaining activity at 100 µM (YES1; [1]) [%] | remaining activity at 100 µM (ASK1; [1]) [%] | remaining activity at 100 µM (EPH-B2; [1]) [%] | remaining activity at 100 µM (MAPKAP-K3; [1]) [%] | residual kinase activity, YES1 (YES1; [1]) | residual kinase activity, ASK1 (ASK1; [1]) | residual kinase activity, EPH-B2 (EPH-B2; [1]) | residual kinase activity, MAPKAP-K3 (MAPKAP-K3; [1]) | also measured |
| --- | --- | --- | --- | --- | --- | --- | --- | --- | --- |
| CC(=O)Nc1nc2cc(O)ccc2s1 [Compound 01-66, N-(5-hydroxybenzo[d]thiazol-2-yl)acetamide] | – | – | – | – | – | – | – | – | remaining activity at 100 µM (YES1): 72%; remaining activity at 100 µM (ASK1): 70%; remaining activity at 100 µM (EPH-B2): 70%; remaining activity at 100 µM (MAPKAP-K3): 39% |
| CC(=O)Nc1nc2ccc(O)cc2s1 [Compound 01-71] | 59 | 53 | 59 | 34 | – | – | – | – | – |
| CC(=O)Nc1nc2ccc(C(F)(F)F)cc2s1 [Compound 01-90] | 57 | 35 | 38 | 101 | – | – | – | – | – |
| CC(=O)Nc1nc2ccc(C#N)cc2s1 [Compound 01-94] | 86 | 18 | 42 | 101 | – | – | – | – | – |
| CC(=O)Nc1cccc(NC(=O)c2nc3ccc(O)cc3s2)c1 [Compound 03-07, N-(3-acetamidophenyl)-6-hydroxybenzo[d]thiazole-2-carboxamide] | – | – | – | – | – | – | – | – | remaining activity at 100 µM (YES1; [2]): 49%; remaining activity at 100 µM (ASK1; [2]): 86%; remaining activity at 100 µM (EPH-B2; [2]): 110%; remaining activity at 100 µM (MAPKAP-K3; [2]): 34% |
| O=C(Nc1nc2cc(O)ccc2s1)c1ccncc1 [Compound 03-11] | – | – | – | – | 82 | 79 | 89 | 68 | – |
| O=C(Nc1nc2ccc(O)cc2s1)c1ccccn1 [Compound 03-12] | – | – | – | – | 73 | 70 | 103 | 31 | – |
| O=C(Nc1nc2cc(O)ccc2s1)c1ccccn1 [Compound 03-13] | – | – | – | – | 60 | 88 | 72 | 62 | – |
| COc1ccc2sc(NC(C)=O)nc2c1 [Compound 03-21] | 93 | 97 | 96 | 97 | – | – | – | – | – |
| CC(=O)Nc1nc2ccccc2s1 [Compound 03-32] | – | – | – | – | 93 | 66 | 116 | 61 | – |
| O=C(Nc1nc2cc(O)ccc2s1)c1cccnc1 [Compound 03-33] | – | – | – | – | 91 | 51 | 99 | 97 | – |
| O=C(Nc1nc2ccc(O)cc2s1)c1ccccc1 [Compound 03-60] | – | – | – | – | 65 | 12 | 78 | 92 | – |
| CC(=O)Nc1nc2cc(C(F)(F)F)ccc2s1 [Compound 03-73] | 108 | 83 | 98 | 93 | – | – | – | – | – |
| CC(=O)Nc1nc2cc(C)ccc2s1 [Compound 03-76] | – | – | – | – | 104 | 23 | 108 | 106 | – |
| CC(=O)Nc1nc2cc(F)ccc2s1 [Compound 03-77] | 85 | 54 | 114 | 107 | – | – | – | – | – |
| O=C(Nc1nc2ccc(O)cc2s1)c1ccncc1 [Compound 08-42] | – | – | – | – | 79 | 37 | 99 | 51 | – |
| O=C(Nc1nc2ccc(O)cc2s1)c1cccnc1 [Compound 08-44] | – | – | – | – | 74 | 18 | 91 | 38 | – |
